From patent US9901592B2 (priority 2008, dated 2018)
≈ marks a conversion by molar mass, not a printed value. Like-named read-outs stand apart in the source and are kept apart here.

Assays:
S. pyogenes [1] = format: cell-based; details: strain 2132 Macrolide-S
M. pneumoniae = test: microbe, parasite or virus in culture; format: cell-based; details: Mycoplasmoides pneumoniae
N. meningitidis = test: MIC, CLSI broth microdilution, invasive isolates; format: cell-based
Method: Example. […] Colonization of the nasopharynx (NP) by NM can lead to invasive meningococcal disease. Chemoprophylaxis is used to eradicate NP colonization and prevent transmission to nonimmune contacts. […] 62 isolates (91.9% blood culture) of NM were collected from 29 medical centers in North and South America and Europe (1997-2008). […] Serological identification was performed for serogroups (SGs) B, C, Y and W135.

M. genitalium = format: cell-based; details: M. genitalium (5 isolates)
M. hominis = format: cell-based; details: M. hominis (13 isolates)
S. pyogenes 3029 = test: Intraperitoneal (IP) mouse infection model (ED50); format: in vivo; details: Streptococcus pyogenes, MAC-R S. pyogenes 3029
S. pyogenes [2] = format: cell-based; set-up: MIC: unit not given beside the values; details: for MIC50 / MIC90: Streptococcus pyogenes, Macr-R
S. pneumoniae = format: cell-based
S. pyogenes [3] = test: microbe, parasite or virus in culture; format: cell-based; details: for MIC: Streptococcus pyogenes
U. parvum = test: MIC testing in 10B broth (colour change); format: cell-based, Ureaplasma parvum; details: U. parvum (10 isolates)
[4] = Neisseria meningitidis, 62 N. meningitidis isolates

With `CC[C@H]1OC(=O)[C@H](C)[C@@H](O[C@H]2C[C@@](C)(OC)[C@@H](O)[C@H](C)O2)[C@H](C)[C@@H](O[C@@H]2O[C@H](C)C[C@H](N(C)C)[C@H]2O)[C@](C)(O)C[C@@H](C)CN(C)[C@H](C)[C@@H](O)[C@]1(C)O` [AZI, azithromycin] the “single step mutation frequency” value (S. pyogenes [1]; 2 × MIC) was <1.0 × 10^−10, the “single step mutation frequency” value (S. pyogenes [1]; 4 × MIC) was <1.0 × 10^−10 and the “single step mutation frequency” value (S. pyogenes [1]; 8 × MIC) was <1.0 × 10^−10. The MIC50 (M. pneumoniae) was 0.00025 µg/mL (≈ 0.000334 µM), the MIC90 (M. pneumoniae) was 0.0005 µg/mL (≈ 0.000668 µM) and the “% Susc.” value (N. meningitidis; CLSI (M100-S19, 2009) criteria) was 100.0%. It also gave an MIC (N. meningitidis; [4]) of 0.015 to 0.12 µg/mL (≈ 0.02 to 0.16 µM), an MIC50 (N. meningitidis; [4]) of 0.06 µg/mL (≈ 0.0801 µM) and an MIC90 (N. meningitidis; [4]) of 0.12 µg/mL (≈ 0.16 µM). The “MIC Range” value (M. genitalium) was “≦0.000032-0.005 μg/mL”, the “MIC Range” value (M. hominis) was 0.5 to 4 µg/mL and the ED50 (S. pyogenes 3029) was greater than 150 mg/kg. For the same compound, the MIC (S. pyogenes [2]; MAC-R S. pyogenes 3029) was “(>64)”, the MIC50 (S. pyogenes [2]; S. pyogenes TEL R, 10 strains) was greater than 32 µg/mL and the MIC90 (S. pyogenes [2]; S. pyogenes TEL R, 10 strains) was greater than 32 µg/mL. For the same compound, the MIC50 (S. pyogenes [2]; S. pyogenes TEL S, 30 strains) was greater than 32 µg/mL, the MIC90 (S. pyogenes [2]; S. pyogenes TEL S, 30 strains) was greater than 32 µg/mL and the “single step mutation frequency” value (S. pneumoniae; strain 1077 Macrolide-S, 2 × MIC) was 7.2 × 10^−9. For the same compound, the “single step mutation frequency” value (S. pneumoniae; strain 1077 Macrolide-S, 4 × MIC) was <1.9 × 10^−10, the “single step mutation frequency” value (S. pneumoniae; strain 1077 Macrolide-S, 8 × MIC) was <1.9 × 10^−10 and the “single step mutation frequency” value (S. pneumoniae; strain 1635 Macrolide-R [erm(A)], 2 × MIC) was <2.0 × 10^−10. The “single step mutation frequency” value (S. pneumoniae; strain 1635 Macrolide-R [erm(A)], 4 × MIC) was <2.0 × 10^−10, the “single step mutation frequency” value (S. pneumoniae; strain 1635 Macrolide-R [erm(A)], 8 × MIC) was <2.0 × 10^−10 and the “single step mutation frequency” value (S. pneumoniae; strain 7127 Macrolide-S [S20N in L4, A105V in L22], 2 × MIC) was <2.0 × 10^−10. For the same compound, the “single step mutation frequency” value (S. pneumoniae; strain 7127 Macrolide-S [S20N in L4, A105V in L22], 4 × MIC) was <2.0 × 10^−10, the “single step mutation frequency” value (S. pneumoniae; strain 7127 Macrolide-S [S20N in L4, A105V in L22], 8 × MIC) was <2.0 × 10^−10 and the “strains with resistant clones / strains tested” value (S. pyogenes [3]; S. pyogenes) was 3/4. The MIC (S. pyogenes [3]; read-out: Initial MIC, strain 237 Macrolide-R [LA mutation], parent) was 4 µg/mL (≈ 5.34 µM), the MIC (S. pyogenes [3]; read-out: Initial MIC, strain 2011 Macrolide-R [mef(A)], parent) was 4 µg/mL (≈ 5.34 µM) and the MIC (S. pyogenes [3]; read-out: Initial MIC, strain 2094 Macrolide-R [erm(A)], parent) was 4 µg/mL (≈ 5.34 µM). It also gave an MIC (S. pyogenes [3]; read-out: Initial MIC, strain 2132 Macrolide-S, parent) of 0.06 µg/mL (≈ 0.0801 µM), an MIC (S. pyogenes [3]; read-out: Initial MIC, strain 2368 Macrolide-R [erm(B)], parent) greater than 64 µg/mL and an MIC (S. pyogenes [3]; read-out: MIC of parents of resistant clones, S. pyogenes) of 0.06 to 4 µg/mL. The MIC (S. pyogenes [3]; read-out: Parental MICs, S. pyogenes, 5 strains with varying resistotypes) was 0.06 to 4 µg/mL (≈ 0.0801 to 5.34 µM), the MIC (S. pyogenes [3]; read-out: Selected Resistance (MIC), strain 237 Macrolide-R [LA mutation], after serial passages in the drug) was 8 µg/mL (≈ 10.7 µM) and the MIC (S. pyogenes [3]; read-out: Selected Resistance (MIC), strain 2011 Macrolide-R [mef(A)], after serial passages in the drug) was 32 µg/mL (≈ 42.7 µM). For the same compound, the MIC (S. pyogenes [3]; read-out: Selected Resistance (MIC), strain 2094 Macrolide-R [erm(A)], after serial passages in the drug) was greater than 64 µg/mL, the MIC (S. pyogenes [3]; read-out: Selected Resistance (MIC), strain 2132 Macrolide-S, after serial passages in the drug) was 1 µg/mL (≈ 1.34 µM) and the “days until resistant clones (MIC increase)” value (S. pyogenes [3]; daily passages, max. 50) was 5 to 35 days. For the same compound, the “Retest MIC after 10 Antibioticfree Subcultures” value (S. pyogenes [3]; strain 237 Macrolide-R [LA mutation], clone selected with CEM-101) was 4 µg/mL, the “Retest MIC after 10 Antibioticfree Subcultures” value (S. pyogenes [3]; strain 237 Macrolide-R [LA mutation], clone selected with CLN) was 8 µg/mL and the “Retest MIC after 10 Antibioticfree Subcultures” value (S. pyogenes [3]; strain 2011 Macrolide-R [mef(A)], clone selected with AZI) was 16 µg/mL. The “Retest MIC after 10 Antibioticfree Subcultures” value (S. pyogenes [3]; strain 2094 Macrolide-R [erm(A)], clone selected with AZI) was greater than 64 µg/mL, the “Retest MIC after 10 Antibioticfree Subcultures” value (S. pyogenes [3]; strain 2094 Macrolide-R [erm(A)], clone selected with CEM-101) was 4 µg/mL and the “Retest MIC after 10 Antibioticfree Subcultures” value (S. pyogenes [3]; strain 2094 Macrolide-R [erm(A)], clone selected with CLN) was 16 µg/mL. The “Retest MIC after 10 Antibioticfree Subcultures” value (S. pyogenes [3]; strain 2094 Macrolide-R [erm(A)], clone selected with CLR) was greater than 64 µg/mL, the “Retest MIC after 10 Antibioticfree Subcultures” value (S. pyogenes [3]; strain 2094 Macrolide-R [erm(A)], clone selected with TEL) was greater than 64 µg/mL and the “Retest MIC after 10 Antibioticfree Subcultures” value (S. pyogenes [3]; strain 2132 Macrolide-S, clone selected with AZI) was 1 µg/mL. For the same compound, the “Retest MIC after 10 Antibioticfree Subcultures” value (S. pyogenes [3]; strain 2368 Macrolide-R [erm(B)], clone selected with CEM-101) was greater than 64 µg/mL, the “Retest MIC after 10 Antibioticfree Subcultures” value (S. pyogenes [3]; strain 2368 Macrolide-R [erm(B)], clone selected with TEL) was greater than 64 µg/mL and the “MIC Range” value (U. parvum) was 0.5 to 4 µg/mL. For the same compound, the MIC50 (U. parvum; Ureaplasma parvum, read-out: MIC50) was 2 µg/mL (≈ 2.67 µM) and the MIC90 (U. parvum; Ureaplasma parvum, read-out: MIC90) was 4 µg/mL (≈ 5.34 µM).
